# Target: T1, hFXR (Homo sapiens, UniProt Q96RI1)
# T1 construct: expressed in transfected cells; host or cells: CV-1 cells
# T1 sequence (Q96RI1 1-486): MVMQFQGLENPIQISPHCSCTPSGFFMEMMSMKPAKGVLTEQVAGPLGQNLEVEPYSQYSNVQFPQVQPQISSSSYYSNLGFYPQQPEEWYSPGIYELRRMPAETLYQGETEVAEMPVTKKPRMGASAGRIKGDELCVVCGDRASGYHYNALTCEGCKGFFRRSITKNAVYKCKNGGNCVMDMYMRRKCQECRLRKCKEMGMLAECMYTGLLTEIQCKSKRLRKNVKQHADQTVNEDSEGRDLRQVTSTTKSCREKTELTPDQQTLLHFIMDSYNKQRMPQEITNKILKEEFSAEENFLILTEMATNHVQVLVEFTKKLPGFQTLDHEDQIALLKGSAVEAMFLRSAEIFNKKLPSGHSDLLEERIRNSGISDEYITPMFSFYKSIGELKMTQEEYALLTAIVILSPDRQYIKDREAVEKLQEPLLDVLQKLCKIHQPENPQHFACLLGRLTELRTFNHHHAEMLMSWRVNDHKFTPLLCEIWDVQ
# T1 sequence (P19793 1-462 partner): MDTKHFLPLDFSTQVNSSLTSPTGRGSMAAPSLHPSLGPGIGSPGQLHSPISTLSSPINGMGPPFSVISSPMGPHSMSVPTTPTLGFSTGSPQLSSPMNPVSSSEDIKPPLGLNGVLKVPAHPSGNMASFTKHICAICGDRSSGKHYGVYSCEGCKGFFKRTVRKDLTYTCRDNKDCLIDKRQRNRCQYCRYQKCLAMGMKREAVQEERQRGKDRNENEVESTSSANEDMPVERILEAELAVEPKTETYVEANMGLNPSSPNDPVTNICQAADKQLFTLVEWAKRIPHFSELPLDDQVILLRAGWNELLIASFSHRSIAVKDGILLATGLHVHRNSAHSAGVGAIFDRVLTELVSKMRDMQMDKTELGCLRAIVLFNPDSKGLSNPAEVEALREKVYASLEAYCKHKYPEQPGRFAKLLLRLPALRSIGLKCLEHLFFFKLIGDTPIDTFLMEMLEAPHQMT
# Assay: In Vitro FXR Assay (TK): TK-ECRE-luc reporter in transfected CV-1 cells
# Assay type: cell-based
# Conditions: CV-1 cells transfected with hFXR, hRXR, pCMX-YFP, 18 hrs incubation, luminescence
# Procedure, shortened: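 CV-1, DMEM/10% charcoal-stripped FBS, 37 °C 5% CO2. Transfection O/N: hFXR + hRXR + TK-ECRE-luc + pCMX-YFP. Cpds (DMSO serial dil.) 18 h; lyse, read luminescence.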
row,SMILES,EC50 [nM]
1,"COc1ccc(C23CCC(CN(c4cc(-c5cnn(C(C)(C)C)c5)ccn4)C(=O)[C@H]4CC[C@H](OC(=O)N5CC(O)C5)CC4)(CC2)CC3)cc1C [Compound 3, 4-((4-(1-(tert-Butyl)-1H-pyrazol-4-yl)pyridin-2-yl)((4-(4-methoxy-3-methylphenyl)bicyclo[2.2.2]octan-1-yl)methyl)carbamoyl)cyclohexyl 3-hydroxyazetidine-trans-1-carboxylate]",≤ 10
2,"COc1ccc(C23CCC(CN(c4cc(-c5cnn(C(C)(C)C)c5)ccn4)C(=O)[C@H]4CC[C@H](OC(=O)N5CC[C@H]5CO)CC4)(CC2)CC3)cc1C [Compound 2.21, (S)-4-((4-(1-(tert-Butyl)-1H-pyrazol-4-yl)pyridin-2-yl)((4-(4-methoxy-3-methylphenyl)bicyclo[2.2.2]octan-1-yl)methyl)carbamoyl)cyclohexyl 2-(hydroxymethyl)azetidine- trans-1-carboxylate]",≤ 10
3,"COc1ccc(C23CCC(CN(c4cc(-c5cnc(C(C)(C)C)s5)ccn4)C(=O)[C@H]4CC[C@H](OC(=O)N5CCC(O)CC5)CC4)(CC2)CC3)cc1C [Compound 2.05, 4-((4-(2-(tert-Butyl)thiazol-5-yl)pyridin-2-yl)((4-(4-methoxy-3-methylphenyl)bicyclo[2.2.2]octan-1-yl)methyl)carbamoyl)cyclohexyl 4-hydroxypiperidine- trans-1-carboxylate]",≤ 10
4,"COc1c(C)cc(C23CCC(CN(c4cc(-c5cnn(C(C)(C)C)c5)ncn4)C(=O)[C@H]4CC[C@H](OC(=O)N5CC(O)C5)CC4)(CC2)CC3)cc1C [Compound 2.37, 4-((6-(1-(tert-Butyl)-1H-pyrazol-4-yl)pyrimidin-4-yl)((4-(4-methoxy-3,5-dimethylphenyl)bicyclo[2.2.2]octan-1-yl)methyl)carbamoyl) (trans-cyclohexyl) 3-hydroxyazetidine-1-carboxylate]",10 to 1000
5,"COc1ccc(C23CCC(CN(c4cc(-c5cnc(C(C)(C)C)s5)ccn4)C(=O)[C@H]4CC[C@H](OC(=O)N5CC(OCCO)C5)CC4)(CC2)CC3)cc1C [Compound 2.07, 4-((4-(2-(tert-Butyl)thiazol-5-yl)pyridin-2-yl)((4-(4-methoxy-3-methylphenyl)bicyclo[2.2.2]octan-1-yl)methyl)carbamoyl) (trans-cyclohexyl) 3-(2-hydroxyethoxy)azetidine-1-carboxylate]",≤ 10
6,"COc1ccc(C23CCC(CN(c4cc(-c5cnn(C(C)(C)C)c5)ncn4)C(=O)[C@H]4CC[C@H](OC(=O)N5CC(O)C5)CC4)(CC2)CC3)cc1C [Compound 2.36, 4-((6-(1-(tert-Butyl)-1H-pyrazol-4-yl)pyrimidin-4-yl)((4-(4-methoxy-3-methylphenyl)bicyclo[2.2.2]octan-1-yl)methyl)carbamoyl) (trans-cyclohexyl) 3-hydroxyazetidine-1-carboxylate]",10 to 1000
7,"COc1ccc(C23CCC(CN(c4cc(-c5cnc(C(C)(C)C)s5)ccn4)C(=O)[C@H]4CC[C@H](OC(=O)N5CC[C@H]5CO)CC4)(CC2)CC3)cc1C [Compound 2.10, (S)-4-((4-(2-(tert-Butyl)thiazol-5-yl)pyridin-2-yl)((4-(4-methoxy-3-methylphenyl)bicyclo[2.2.2]octan-1-yl)methyl)carbamoyl)cyclohexyl 2-(hydroxymethyl)azetidine- trans-1-carboxylate]",≤ 10
8,"COc1ccc(C23CCC(CN(c4cc(-c5cnn(C(C)(C)C)c5)ccn4)C(=O)[C@H]4CC[C@H](OC(=O)N5CC[C@@H](O)C5)CC4)(CC2)CC3)cc1C [Compound 2.33, (R)-4-((4-(1-(tert-Butyl)-1H-pyrazol-4-yl)pyridin-2-yl)((4-(4-methoxy-3-methylphenyl)bicyclo[2.2.2]octan-1-yl)methyl)carbamoyl) cyclohexyl trans-3-hydroxypyrrolidine-1-carboxylate]",≤ 10
9,"COc1ccc([C@H]2CC[C@H](CN(c3cc(-c4cnn(C(C)(C)C)c4)ccn3)C(=O)[C@H]3CC[C@H](OC(=O)N4CCC(O)CC4)CC3)CC2)cc1C [Compound 1.10, trans-4-((4-(1-(tert-Butyl)-1H-pyrazol-4-yl)pyridin-2-yl)((trans-4-(4-methoxy-3-methylphenyl)cyclohexyl)methyl)carbamoyl) cyclohexyl 4-hydroxypiperidine-1-carboxylate]",10 to 1000
10,"COc1ccc(C23CCC(CN(c4cc(-c5cnn(C(C)(C)C)c5)ccn4)C(=O)[C@H]4CC[C@H](OC(=O)NC5CC[S+]([O-])CC5)CC4)(CC2)CC3)cc1C (stereo partly drawn) [Compound 2.38, (1r,4r)-4-((4-(1-(tert-Butyl)-1H-pyrazol-4-yl)pyridin-2-yl)((4-(4-methoxy-3-methylphenyl)bicyclo[2.2.2]octan-1-yl)methyl)carbamoyl)cyclohexyl (1-oxidotetrahydro-2H-thiopyran-4-yl)carbamate]",10 to 1000
11,"COc1ccc(C23CCC(CN(c4cc(-c5coc(C(C)(C)C)n5)ccn4)C(=O)[C@H]4CC[C@H](OC(=O)N5CCC(O)CC5)CC4)(CC2)CC3)cc1C [Compound 2.17, 4-((4-(2-(tert-Butyl)oxazol-4-yl)pyridin-2-yl)((4-(4-methoxy-3-methylphenyl)bicyclo[2.2.2]octan-1-yl)methyl)carbamoyl)cyclohexyl 4-hydroxypiperidine- trans-1-carboxylate]",≤ 10
12,"COc1ccc(C23CCC(CN(c4cc(-c5cnc(C(C)(C)C)s5)ccn4)C(=O)[C@H]4CC[C@H](OC(=O)N5CCC(N(C)C)C5)CC4)(CC2)CC3)cc1C (stereo partly drawn) [Compound 2.09, 4-((4-(2-(tert-Butyl)thiazol-5-yl)pyridin-2-yl)((4-(4-methoxy-3-methylphenyl)bicyclo[2.2.2]octan-1-yl)methyl)carbamoyl)cyclohexyl 3-(dimethylamino)pyrrolidine- trans-1-carboxylate]",10 to 1000

# Further lines, results first:
row,EC50 [nM],SMILES
1,≤ 10,"COc1ccc(C23CCC(CN(c4cc(-c5cnn(C(C)(C)C)c5)ccn4)C(=O)[C@H]4CC[C@H](OC(=O)N5CCC(O)C5)CC4)(CC2)CC3)cc1C (stereo partly drawn) [Compound 3.03, 4-((4-(1-(tert-Butyl)-1H-pyrazol-4-yl)pyridin-2-yl)((4-(4-methoxy-3-methylphenyl)bicyclo[2.2.2]octan-1-yl)methyl)carbamoyl) (trans-cyclohexyl) 3-hydroxypyrrolidine-1-carboxylate]"
2,10 to 1000,"CN(C)c1ccc(C23CCC(CN(c4cc(-c5cnn(C(C)(C)C)c5)ccn4)C(=O)[C@H]4CC[C@H](OC(=O)N5CC(O)C5)CC4)(CC2)CC3)cn1 [Compound 3.06, 4-((4-(1-(tert-Butyl)-1H-pyrazol-4-yl)pyridin-2-yl)((4-(6-(dimethylamino)pyridin-3-yl)bicyclo[2.2.2]octan-1-yl)methyl)carbamoyl) (trans-cyclohexyl) 3-hydroxyazetidine-1-carboxylate]"
3,10 to 1000,"COc1ccc(C23CCC(CN(c4nccc(-c5cnn(C(C)(C)C)c5)n4)C(=O)[C@H]4CC[C@H](OC(=O)N5CC(O)C5)CC4)(CC2)CC3)cc1C [Compound 3.14, 4-((4-(1-(tert-Butyl)-1H-pyrazol-4-yl)pyrimidin-2-yl)((4-(4-methoxy-3-methylphenyl)bicyclo[2.2.2]octan-1-yl)methyl)carbamoyl) (trans-cyclohexyl) 3-hydroxyazetidine-1-carboxylate]"
4,10 to 1000,"CCC(CC)(CC)n1cc(-c2ccnc(N(CC34CCC(c5ccc(OC)c(C)c5)(CC3)CC4)C(=O)[C@H]3CC[C@H](OC(=O)N4CC(O)C4)CC3)c2)cn1 [Compound 4.08, 4-((4-(1-(3-Ethylpentan-3-yl)-1H-pyrazol-4-yl)pyridin-2-yl)((4-(4-methoxy-3-methylphenyl)bicyclo[2.2.2]octan-1-yl)methyl)carbamoyl) cyclohexyl trans-3-hydroxyazetidine-1-carboxylate]"
5,≤ 10,"COc1ccc(C23CCC(CN(c4cc(-c5cnn(C(C)(C)C(F)(F)F)c5)ccn4)C(=O)[C@H]4CC[C@H](OC(=O)N5CC(O)C5)CC4)(CC2)CC3)cc1C [Compound 4.09, 4-(((4-(4-Methoxy-3-methylphenyl)bicyclo[2.2.2]octan-1-yl)methyl)(4-(1-(1,1,1-trifluoro-2-methylpropan-2-yl)-1H-pyrazol-4-yl)pyridin-2-yl)carbamoyl)cyclohexyl trans-3-hydroxyazetidine-1-carboxylate]"
6,10 to 1000,"COc1ccc(C23CCC(CN(c4cc(-n5cnc(C(C)(C)C)c5)ccn4)C(=O)[C@H]4CC[C@H](OC(=O)N5CC(O)C5)CC4)(CC2)CC3)cc1C [Compound 4.11, 4-((4-(4-(tert-Butyl)-1H-imidazol-1-yl)pyridin-2-yl)((4-(4-methoxy-3-methylphenyl)bicyclo[2.2.2]octan-1-yl)methyl)carbamoyl) cyclohexyl trans-3-hydroxyazetidine-1-carboxylate]"

# — patent US11773094B2, “Farnesoid X receptor agonists and uses thereof” (Metacrine, Inc., priority 2018, dated 2023)
